In patent publication US11013232B2, “Hydrotesting and mothballing composition and method of using combination products for multifunctional water treatment” (priority 2014, dated 2021):

Experiments:
[1] = tested on: General Heterotrophic Bacteria (GHB); test: Most Probable Number (MPN) bacterial kill efficacy, GHB; format: cell-based, mixed consortia isolated from seawater; details: first MPN set; for GHB per mL: formulation with ammonium bisulfide, 500 ppm active biocide; for log reduction of planktonic GHB: exposure time of 24 hours
Experimental: (§1) The Most Probably Number technique using a bacterial enumeration technique was performed, as described in NACE International Standard TMP 194-2004. Complex mixed consortia were isolated from seawater and subjected to the chemicals being tested. All chemicals were applied at the same active concentration. Surviving cells were assayed after exposure periods of 1, 7 and 28 days to the numbers compared with a control which received no treatments. The bottle tests were carried out using two mixed consortia—Sulfate Reducing Bacteria (SRB) and General Heterotrophic Bacteria (GHB) that also measured Acid Producing Bacteria (APB) enriched from seawater. Aliquots of the water (1 mL) were inoculated into SRB culture medium and GHB culture medium (Phenol Red Dextrose broth) respectively and sub-cultured twice. The cultures used in the tests were incubated at 30° C. for five days; these were then used to supplement seawater to achieve 10^3 to 10^4 SRB cells per mL. For the trial one control bottle and four test bottles were set up. The chemicals were added to the appropriate test bottles to give the final concentrations of each product as supplied. All chemicals were added so that 500 ppm of active biocide was present in each test. The control bottle contained seawater only with no added chemical.
(§2) At each time point, (one, seven and twenty-eight days), a sample was removed from each test bottle and the control bottle and used to inoculate the MPN vials. Bacterial counts were performed using the triplicate Most Probable Number method (triplicate MPNs). The inoculated MPN vials were incubated at 30° C. for 7 days for GHB and APB and 28 days for SRB. Results have been reported as cells per mL. […]

[2] = tested on: Acid Producing Bacteria (APB); test: Most Probable Number (MPN) bacterial kill efficacy, APB; format: cell-based, mixed consortia isolated from seawater; details: first MPN set; for APB per mL: formulation with ammonium bisulfide, 500 ppm active biocide
Experimental: as §1, §2

[3] = tested on: Sulfate Reducing Bacteria (SRB); test: Most Probable Number (MPN) bacterial kill efficacy, SRB; format: cell-based, mixed consortia isolated from seawater; details: first MPN set; for SRB per mL: formulation with ammonium bisulfide, 500 ppm active biocide
Experimental: as §1, §2

[4] = tested on: 5 species of bacteria in a simulated marine environment; test: Molecular technique biocidal properties (qPCR of 16s rDNA); format: cell-based; details: for 7 day DNA (copies) / 14 day DNA (copies) / 21 day DNA (copies): dose rate 500 ppm
Experimental: Molecular techniques were performed on the best performing (Formulation 3) commercial product and the embodiments of the invention Formulation 1 and Formulation 2. This aim of the study was to investigate the efficiency of the biocides on inhibiting 5 species of bacteria in a simulated marine environment. This study was conducted over a 21 day period and involved several marine species of bacteria which have all been previously linked with attributing to corrosion. […] A control was used in the testing and glutaraldehyde was selected for this role.
For each species 3 individual inoculums for each replicate were grown from an isolated single colony picked from agar plates. The species used were Desulfovibrio desulfricans (SRB), Shewanella putrefaciens (IRB), Thiobacillus thioparus (SOB), Pseudomonas aeruginosa (biofilm) and Methanolibacter arachidis (methanogens). Following 24 hours of incubation on an orbital shaker, cells were centrifuged and the pelleted cells washed with phosphate buffered saline (PBS). Washed cells were then suspended in PBS and measured to a set optical density via UV spectrometry at 600 nm. Each species was then used to inoculate cultures to give a final starter concentration of 0.01 at 600 nm. Each treatment was conducted in triplicate with each replicate being started at alternative time periods to reduce culture bias and human error. Three negative controls and three positive controls were established for each temperature under study.
The trials were conducted in 125 mL Erlenmeyer flasks containing 75 mL of marine broth, which were subsequently autoclaved for 20 min at 121° C. All bottles were incubated at either 4° C. or 25° C. on an orbital shaking platform at 150 rpm. Triplicate biocide treatments were established at each temperature at concentrations of 500, 750 and 1000 ppm. At each weekly interval, 2 mL samples were collected at 7, 14 and 21 days from each bottle. These were subjected to a co-extraction of DNA which was measured with qPCR. The gene target in this study was 16s rDNA a conserved gene present in all bacteria and Achaea.

SMILES	GHB per mL ([1]; 24 h exposure) [cells per mL]	GHB per mL ([1]; 7 d exposure) [cells per mL]	GHB per mL ([1]; 28 d exposure) [cells per mL]	log reduction of planktonic GHB [1] [log]	APB per mL ([2]; 24 h exposure) [cells per mL]	APB per mL ([2]; 7 d exposure) [cells per mL]	APB per mL ([2]; 28 d exposure) [cells per mL]	SRB per mL ([3]; 24 h exposure) [cells per mL]	SRB per mL ([3]; 7 d exposure) [cells per mL]	SRB per mL ([3]; 28 d exposure) [cells per mL]	also measured
CN1CSC(=S)N(C)C1 [Dazomat, Tetrahydro-3,5-dimethyl-2H-1,3,5-thiadiazine-2-thione]	4.5E+02	4.5E+03	2.5E+05	2.5	2.5E+02	2.5E+02	4.5E+02	2.5E+04	2.0E+02	1.0E+00	log reduction of APB numbers ([2]; exposure time of 24 hours): 0.5 log; log reduction of planktonic SRB ([3]; exposure time of 24 hours): did not result in a significant reduction
O=CCCCC=O [Glutaraldehyde, Pentane-1,5-dial]	–	–	–	–	–	–	–	–	–	–	fold increase in growth compared to the highest level seen in the other biocides ([4]; 4° C., 500 ppm): 15.8 fold; fold increase in copy number compared to the highest count in the invention formulation biocide flasks ([4]; 25° C., 500 ppm): 670 fold; 7 day DNA (copies) ([4]; 4° C.): 2.60E+04 copies; 14 day DNA (copies) ([4]; 4° C.): 1.11E+08 copies; 21 day DNA (copies) ([4]; 4° C.): 7.22E+07 copies; 7 day DNA (copies) ([4]; 25° C.): 8.85E+04 copies; 14 day DNA (copies) ([4]; 25° C.): 1.00E+03 copies; 21 day DNA (copies) ([4]; 25° C.): 2.51E+10 copies
CC1CN(CN2COC(C)C2)CO1 (stereo not shown) [MBMO, N, N′-Methylene bis(5-methyloxazolidine)]	9.5E+03	4.5E+03	2.5E+02	1	7.5E+02	7.5E+02	4.5E+01	9.5E+03	4.0E+01	1.0E+00	further log reduction of GHB numbers ([1]; after 28 days): 2 log
